Legend:
[1] = tested on: PAF-induced [^14 C]serotonin release, rabbit platelets; test: Inhibitory action on PAF-induced [14C]-serotonin release from rabbit platelets; format: cell-based, New Zealand white male rabbits; details: Oryctolagus cuniculus, Platelet, PAF 1×10^-9 M; for inhibition at 0.05 µM: test compound 5 × 10^-8 M; for inhibition at 0.005 µM: test compound 5 × 10^-9 M
Method: The following pharmacological test examples explain the effects of the present invention in a more concrete manner.
Inhibitory action on PAF-induced [^14 ]-serotonin release
Blood was collected from the hearts of conscious New Zealand white male rabbits weighing 2 to 3 kg. The blood was immediately subjected to a centrifuge at 1400 rpm for 10 minutes to obtain platelet rich plasma(PRP).PRP was incubated with a trace amount of [^14 C]-serotonin for 20 minutes at 22° C. Prelabelled platelets were prepared by centrifugation at 3500 rpm for 10 minutes. The test compound was added to 80 μl of [^14 C]serotonin-labeled platelets in plastic test tubes, and the mixture was incubated for 2 minutes. PAF (1×10 ^-9 M) was then added to the reaction mixture and incubated for additional 2 minutes at which time 10 μl of cold formaldehyde was added to stop the reactions. The tubes were immediately cooled to 4° C. and centrifuged at 12000 rpm for 2 minutes. The supernatants (80 μl) were assayed for percentage of [^14 C]serotonin release by the conventional methods of measuring ^14 C counts.

PAF receptor = biological target: T1, PAF receptor (Oryctolagus cuniculus, UniProt G1TEI7); test: PAF Receptor Binding Assay ([3H]C18-PAF, rabbit platelet membranes)
T1 construct: Platelet membranes were prepared by centrifugation and washing; tissue Pel-Freez (Rogers, AR), supplier of the citrated whole rabbit blood; host or cells: rabbit platelet membranes
T1 sequence (G1TEI7 1-342): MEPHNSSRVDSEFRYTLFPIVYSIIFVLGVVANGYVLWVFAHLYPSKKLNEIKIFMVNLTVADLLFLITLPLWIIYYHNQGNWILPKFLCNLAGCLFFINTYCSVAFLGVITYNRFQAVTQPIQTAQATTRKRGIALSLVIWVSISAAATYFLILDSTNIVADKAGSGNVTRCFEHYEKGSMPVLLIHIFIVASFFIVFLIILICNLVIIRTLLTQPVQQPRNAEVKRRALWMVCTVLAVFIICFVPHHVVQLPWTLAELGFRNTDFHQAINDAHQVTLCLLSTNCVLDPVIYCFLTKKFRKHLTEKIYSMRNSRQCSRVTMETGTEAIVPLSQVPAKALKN
Method: PAF Receptor Binding Assay Citrated whole rabbit blood was obtained from Pel-Freez(Rogers, AR). Rabbit platelets were prepared by centrifugation and washing. The platelets were lysed by freeze-thawing and sonification; Platelet membranes were prepared by centrifugation and washing. Final membrane preparation were stored frozen in 10 mM Tris/5 mM MgCl2 /2 mM EDTA (TME buffer, pH 7.0) with 0.25M sucrose added for membrane stabilization. […] The final volume of the assay was 1001 μl. The assay was conducted in Millititer-GV™(Millipore Corp.) filtration plates; incubation time was for 60 minutes at room temperature (22°-23° C.). […] The filters were dried and removed. The bound radioactivity was quantiated with a Berthold TLC-Linear Analyzer model LB2842. […] Experiments were repeated at least once. […] Ki values of inhibitory binding constants were calculated according to the methods of the literature[Cheng et al., Biochem.

[2] = tested on: PAF-induced platelet aggregation, rabbit platelets; test: Inhibitory action on PAF-induced platelet aggregation (platelet-rich plasma); format: cell-based, New Zealand male rabbits; details: Oryctolagus cuniculus, PAF 5×10^-9 M, 37° C., turbidimetry, rabbit PRP
Method: Blood was collected from the hearts of conscious New Zealand male rabbits weighing 2 to 3 kg using citric acid as an anticoagulant (one volume part of 3% citric acid relative to 9 volume parts of the whole blood). A platelet-rich plasma(PRP) was prepared by centrifugation at 1000 rpm for 10 minutes. The remaining blood after collecting the PRP was subjected to a centrifuge at 3000 rpm for 10 minutes to obtain platelet poor plasma(PPP). PRP was diluted with PPP to adjust the number of platelets to about 3×10^5 /μl. Solution of test compound (30 μl) was added to the PRP(270 μl), and after incubation for 2 minutes at 37° C., 30 μl aliquot of PAF(5×10^-9 M) was added. Platelet aggregation was then examined by means of turbidimetry [Born, Nature, 194, 927(1962)] with dual channel aggregometer (Chrono-Log. Corp., Havertown, Pa.). As the control, physiological saline without test sample was used. The platelet aggregation inhibiting activities of the test sample are expressed as IC50, that is the concentration of the compound at which 50% of the aggregation is inhibited.

Question: With CCCCCCCCCCCCCCCCOC[C@H]1C[C@@H](COC(=O)N(Cc2cccc[n+]2CC)C(C)=O)O1 (relative stereo) [Example 1, cis-2-[[N-Acetyl-N-[[[2-[(hexadecyloxy)methyl]-4-oxetanyl]methoxy]carbonyl]amino]methyl]-1-ethyl-pyridinium iodide] as the compound, how does the inhibition at 0.2 µM ([1]; test compound 2 × 10^-7 M) read?
Answer: The inhibition at 0.2 µM was 90%.

Question: For CCCCCCCCCCCCCCCCCCNC(=O)OC[C@@H]1C[C@H](COC(=O)N(Cc2cccc[n+]2CC)C(C)=O)O1 (relative stereo) [Example 3, cis-2-[[N-Acetyl-N-[[[4-[[(octadecylcarbamoyl)oxy]methyl]-2-oxetanyl]methoxy]carbonyl]amino]methyl]-1-ethyl-pyridinium iodide], which inhibition at 0.05 µM [1] is on record?
Answer: The inhibition at 0.05 µM was 85%.

Question: CCCCCCCCCCCCCCCCCCNC(=O)OC[C@H]1C[C@H](COC(=O)N(Cc2cccc[n+]2CC)C(C)=O)O1 (relative stereo) [Example 5, trans-2-[[N-Acetyl-N-[[[4-[[(octadecylcarbamoyl)oxy]methyl]-2-oxetanyl]methoxy]carbonyl]amino]methyl]-1-ethyl-pyridinium iodide] was tested. Which inhibition at 0.05 µM [1] did it give?
Answer: Its inhibition at 0.05 µM is 95%.

Question: And the inhibition at 0.005 µM [1]?
Answer: The inhibition at 0.005 µM was 70%.

Question: Which Ki (PAF receptor) does the source give for CCCCCCCCCCCCCCCCCCNC(=O)OC[C@H]1C[C@H](COC(=O)N(Cc2cccc[n+]2CC)C(=O)c2ccccc2OC)S1 (relative stereo) [Example 30, trans-2-[[N-(2-Methoxy)benzoyl-N-[[[4-[[(octadecylcarbamoyl)oxy]ethyl]-2-thietanyl]methoxy]carbonyl]amino]-1-ethyl-pyridinium chloride] here?
Answer: The Ki was 34 nM.

Question: How did the IC50 [2] turn out when CCCCCCCCCCCCCCCCOC[C@H]1C[C@H](COC(=O)N(Cc2cccc[n+]2CC)C(=O)c2ccccc2OC)S1 (relative stereo) [Example 33, trans-2-[[N-(2-Methoxy)benzoyl-N-[[[4-[(hexadecyloxy)methyl]-2-thietanyl]methoxy]carbonyl]amino]methyl]-1-ethyl-pyridinium chloride] was run?
Answer: Its IC50 is 19 nM.

Question: For CCCCCCCCCCCCCCCCCCNC(=O)OC[C@H]1C[C@H](COC(=O)N(Cc2cccc[n+]2CC)C(C)=O)N1C(=O)c1ccccc1 (relative stereo) [Example 44, 2-[[N-Acetyl-N-[[[4-[[(octadecylcarbamoyl)oxy]methyl]-1-benzoylazetidine-2-yl]methoxy]carbonyl]amino]methyl]-1-ethyl-pyridinium chloride], which Ki (PAF receptor) is on record?
Answer: The Ki was 104 nM.

Question: How did the inhibition at 0.005 µM [1] turn out when CCCCCCCCCCCCCCCCCCNC(=O)OCC1(COC(=O)N(Cc2cccc[n+]2CC)C(C)=O)COC1 [Example 6, 2-[[-Acetyl-N-[[[3-[[(octadecylcarbamoyl)oxy]methyl]-3-oxetanyl]methoxy]carbonyl]amino]methyl]-1-ethyl-pyridinium iodide] was run?
Answer: The inhibition at 0.005 µM was 75%.

Question: How did the inhibition at 0.05 µM [1] turn out when CCCCCCCCCCCCCCCCCCNC(=O)OCC1(COC(=O)CCCCC[n+]2ccsc2)COC1 [Example 13, 3-[5-[[[3-[[(Octadecylcarbamoyl)oxy]methyl]-3-oxetanyl]methoxy]carbonyl]pentyl]thiazolium bromide] was run?
Answer: The inhibition at 0.05 µM was 85%.
